From patent US20170176470A1, “DETECTION OF CARBOXYALKYLPYRROLE OR PENTYLPYRROLE ETHANOLAMINE PHOSPHOLIPIDS” (CASE WESTERN RESERVE UNIVERSITY, priority 2015, published 2017)

Assays:
[1] = biological target: T1, recombinant mouse TLR2-Fc fusion protein (Mus musculus, UniProt Q9QUN7); test: Competitive binding of CEP-PE vs CEP-HSA to recombinant mouse TLR2-Fc protein (ELISA); settings: vesicles 0 to 125 μM; coated CEP-HSA; mTLR2-Fc 1 μg/ml
T1 construct: purchased R&D systems (Minneapolis, Minn.)
Protocol: Small unilamellar vesicles of CEP-DPPE (125 μM) in phosphate buffered saline (PBS) were prepared by extruding (20 times) the hydrated phospholipids through a 0.1 μm polycarbonate filter using an Avanti Mini-Extruder (Avanti Polar Lipids, Inc., Alabaster, Ala.). The resulting solution was diluted to various concentrations by addition of PBS. To a 96-well ELISA plate, 100 μl of 5 μM CEP in CEP-HSA protein in PBS solution was added into each well and the plate was incubated at 37° C. for 1 h. PBS (100 μl) was used as control. Then the wells were washed with PBS and the non-binding sites on wells were blocked with 350 μL of 4% bovine serum albumin (BSA) in PBS buffer for 1 h at 37° C. blocking was completed, a mixture of recombine-ant mouse TLR2-Fc protein at a fixed concentration (1 μg/ml, in 1% BSA-PBS) with an equal volume of CEP-PE vesicles at concentrations from 0 to 125 μM was added to each well, and the plate was allowed to incubate for 1 h at 37° C. DPPE vesicle solutions at 0, 50, 75 and 120 μM concentration, prepared by sonication, were used as parallel samples. After washing the plate with PBS containing 0.1% Tween-20 (PBST) buffer, 100 μL of 1:2,000 diluted goat anti-human Fc antibody in PBST buffer was added to each well. […] After an additional 30 min incubation, the absorbance for each well was read at 405 nm with a microplate reader (Bio-Rad, Hercules, Calif.).

[2] = tested on: HUVECs; test: HUVEC tube formation assay; type: cell-based, human
Protocol: For comparing the ability of various CEP-derivatives to promote tube formation (FIG. 2A) HUVECs were seeded on Matrigel-coated 48 well plates (BD Bioscience). The DMEM-F12 medium (Media lab, Cleveland Clinic, Cleveland, Ohio) was supplemented with various CEP-derivatives as indicated and incubated with cultured HUVECs at 37° C. for 8 h. Tube formation by HUVECs was observed using a phase contrast inverted microscope. Two independent assays were performed by two operators, one used PBS as control and the other used DPPE vesicles as control. The data were quantified either by measuring the length of tubes or by the number of branches. For testing the effects of oxPAPC, a TLR2 inhibitor, (FIG. 2C) or TLR2 knockdown (FIG. 2D) on the ability of CEP-PE to promote tube formation, growth factor-reduced (GFR) basement membrane extract (Cultrex BME, Trevigen, Gaithersburg, Md.; 175 μl/well) was added to the wells of an ice-cold 48-well plate and then incubated at 37° C. for 1 h to allow the gel to solidify. Overnight-starved, trypsin detached and extensively washed HUVECs (2.5×10^4 cells/well; Promocell, GmbH, Heidelberg, Germany) in a basal Growth Medium 2 (GM2; Promocell, GmbH) were seeded onto the BME coated wells. […] They were further thoroughly washed three times with GM2 basal medium, counted and seeded onto BME coated wells. […]

[3] = tested on: PLD from Streptomyces chromofuscus; test: PLD-catalyzed hydrolysis of pyrrole-modified PEs, monitored by LC-MS; type: biochemical
Protocol: The isolated lipids were hydrolyzed with PLD (Streptomyces chromofuscus) by a modification of the method described previously for hydrolysis of isolevuglandin modified PEs. Lipids were re-suspended in 50 μL of methanol. Then 450 μL of HBSS buffer (Thermo Scientific, Waltham, Mass.) supplemented with 5 mM CaCl2 and 0.1 mM EDTA was added. The mixture was incubated at 37° C. for 30 min, and then was sonicated for 10 min. The cloudy lipid mixture was passed through a 0.1 μm polycarbonate filter (20 times) for extrusion using an Avanti Mini- Extruder Set (Avanti Polar Lipids, Inc., Alabaster, Ala.) to generate a homogeneous unilammelar lipid vesicle solution. Then 280 units of PLD (Streptomyces chromofuscus) were added to each sample. The mixture was incubated under argon with gentle shaking at 37° C. overnight. The next day the samples were evaporated to dryness under a stream of nitrogen for 2 h. […]
To verify CEP-PEs are substrates of PLD, CEP-DPPE and d4-CEP-PE standards were treated with PLD from Streptomyces chromofuscus. Then the generation of CEP-ETN and d4-CEPETN was monitored by LC-MS/MS, respectively. […]
Total phospholipids isolated from biological samples by a modified Bligh & Dyer method, were prepared for phospholipolysis by conversion into small unilamellar vesicles (SUVs) by extrusion. […] The resulting product mixture was then analyzed by injection into the LC-MS/MS. […]

T1 sequence (Q9QUN7 with tags, fused parts or gaps limits assumed): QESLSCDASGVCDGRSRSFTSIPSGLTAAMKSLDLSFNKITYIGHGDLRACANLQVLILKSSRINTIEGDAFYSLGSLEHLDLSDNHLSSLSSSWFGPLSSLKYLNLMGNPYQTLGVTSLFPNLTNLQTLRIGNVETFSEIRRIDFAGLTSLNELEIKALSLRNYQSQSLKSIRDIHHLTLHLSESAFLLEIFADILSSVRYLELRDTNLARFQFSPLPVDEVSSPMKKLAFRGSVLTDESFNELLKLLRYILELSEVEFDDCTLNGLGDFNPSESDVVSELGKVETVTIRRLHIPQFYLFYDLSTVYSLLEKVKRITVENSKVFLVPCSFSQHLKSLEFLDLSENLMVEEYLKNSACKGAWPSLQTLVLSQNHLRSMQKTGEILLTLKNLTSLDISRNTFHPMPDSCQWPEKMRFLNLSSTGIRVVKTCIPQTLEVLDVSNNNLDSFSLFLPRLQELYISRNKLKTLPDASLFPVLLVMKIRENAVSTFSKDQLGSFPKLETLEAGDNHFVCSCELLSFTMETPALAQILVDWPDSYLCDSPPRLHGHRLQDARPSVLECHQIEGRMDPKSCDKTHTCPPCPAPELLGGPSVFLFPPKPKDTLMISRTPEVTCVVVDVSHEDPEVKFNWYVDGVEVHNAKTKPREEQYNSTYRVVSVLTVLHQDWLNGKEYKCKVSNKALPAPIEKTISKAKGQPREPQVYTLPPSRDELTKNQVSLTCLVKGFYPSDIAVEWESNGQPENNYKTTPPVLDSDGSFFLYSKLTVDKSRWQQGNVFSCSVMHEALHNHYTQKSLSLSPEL

Compound: CCCCCCCCCCCCCCCC(=O)OC[C@H](COP(=O)(O)OCCN)OC(=O)CCCCCCCCCCCCCCC [DPPE, 1,2-Dipalmitoyl-sn-glycero-3-phosphoethanolamine, reference compound]
- competition with CEP-HSA in binding with mTLR2-Fc protein [1]: does not inhibit

Compound: CEP derivative of 1,2-dipalmitoyl-sn-glycero-3-phosphoethanolamine [CEP-DPPE]
- ability to induce tube formation by HUVECs after knockdown of TLR2 by TLR2 siRNA ([2]; HUVECs with transient TLR2 knockdown, 1-500 nM CEP-DPPE, 12 h): abolished
- tube formation by HUVECs ([2]; cultured HUVECs on Matrigel, 8 h, 0.5 μM CEP-DPPE, PBS or DPPE as negative control): induces tube formation
- competition with CEP-HSA in binding with mTLR2-Fc protein [1]: compete with CEP-HSA
- release of CEP-ETN by PLD ([3]; control experiment, incubation for 1 h (data not shown)): quantitative release
- hydrolysis by PLD (Streptomyces chromofuscus) to the modified ethanolamine ([3]; standards treated with PLD, LC-MS/MS or LC-MS): readily hydrolyzed
